Experimental data: patent US8835644B2, “Broad spectrum benzothiophene-nitrothiazolide and other antimicrobials” (University of Virginia Patent Foundation, priority 2009, dated 2014)
Converted amounts (≈) assume the structure as drawn. Read-outs that look alike come from different tables or passages of the source.

How the values were obtained:
C. jejuni = assay: MIC testing by broth dilution, C. jejuni; format: cell-based, Campylobacter jejuni
Experimental: (§1) A standard broth dilution protocol was used in 96 well microplates containing a standard dilution of the microorganism to be tested in 100 microliters of the appropriate medium. Appropriate medium: E. coli, LB medium; Staphylococcus strains, Trypticase Soy; and for H. pylori and C. jejuni, Brain Heart Infusion. The compounds to be tested were set at 32 μg/ml in 200 microliters in well one and then serially diluted to provide a range from 32 to 0.06. The wells were scored visually at 24 h. The well where there was no growth was recorded as the MIC. Clostridium difficile was tested by agar diffusion and disk diffusion (Kirby Bower) methods under anaerobic conditions on Wilkins Chalgrin agar. In these assays, zone of inhibited growth was measured and compared by relative ratio to the zone recorded for NTZ.
(§2) Representative compounds of the invention were tested in a series of assays against a series of organisms as described above. […] The organisms tested include, C. difficile, H. pylori, C. jejuni, MRSA, S. epidermidis, and E. coli. S. epidermidis and E. coli were tested in the plank and biofilm assay. A disk diffusion assay was also used for C. difficile. Direct PFOR enzyme assays were also performed. All analogues and derivatives were not tested on every organism in every type of assay (the “-” in each table means that it was not tested).

H. pylori = assay: MIC testing by broth dilution, H. pylori; format: cell-based, Helicobacter pylori
Experimental: as §1, §2

E. coli = assay: MIC testing by broth dilution, E. coli plank; format: cell-based, Escherichia coli
Experimental: as §1, §2

MRSA = assay: MIC testing by broth dilution, MRSA; format: cell-based, Staphylococcus aureus
Experimental: as §1, §2

S. epidermidis = assay: MIC testing by broth dilution, S. epidermidis plank; format: cell-based, Staphylococcus epidermidis
Experimental: as §1, §2

[1] = broth dilution, Brain Heart Infusion, 24 h, read-out: MIC (μM) C. jejuni
[2] = broth dilution, Brain Heart Infusion, 24 h, read-out: MIC (μM) H. pylori
[3] = broth dilution, LB medium, 24 h, read-out: MIC (μM) E. coli Plank
[4] = broth dilution, Trypticase Soy, 24 h, read-out: MIC (μM) MRSA
[5] = broth dilution, Trypticase Soy, 24 h, read-out: MIC (μM) S. epidermidis Plank
[6] = Furan analogues table, read-out: MIC C. jejuni
[7] = Furan analogues table, read-out: MIC H. pylori
[8] = planktonic, Furan analogues table, read-out: MIC E. coli Plank
[9] = Furan analogues table, read-out: MIC MRSA
[10] = planktonic, Furan analogues table, read-out: MIC S. epidermidis Plank

MIC (C. jejuni; [6]) [µM]	MIC (H. pylori; [7]) [µM]	MIC (E. coli; [8]) [µM]	MIC (MRSA; [9]) [µM]	MIC (S. epidermidis; [10]) [µM]	SMILES	MIC (C. jejuni; [1]) [µM]	MIC (H. pylori; [2]) [µM]	MIC (E. coli; [3]) [µM]	MIC (MRSA; [4]) [µM]	MIC (S. epidermidis; [5]) [µM]	other results
24.3 (≈ 8 µg/mL)	3.8 (≈ 1.25 µg/mL)	97.2 (≈ 32 µg/mL)	12.1 (≈ 3.98 µg/mL)	12.1 (≈ 3.98 µg/mL)	Cc1ccccc1-c1ccc(C(=O)Nc2ncc([N+](=O)[O-])s2)o1 [VPC16a1103]						
24.0 (≈ 8 µg/mL)	1.5 (≈ 0.5 µg/mL)	96.0 (≈ 32 µg/mL)	24.0 (≈ 8 µg/mL)	12.0 (≈ 4 µg/mL)	O=C(Nc1ncc([N+](=O)[O-])s1)c1ccc(-c2cccc(F)c2)o1 [VPC16b1115]						
11.4 (≈ 3.99 µg/mL)	1.4 (≈ 0.49 µg/mL)	91.5 (≈ 32 µg/mL)	11.4 (≈ 3.99 µg/mL)	5.7 (≈ 1.99 µg/mL)	O=C(Nc1ncc([N+](=O)[O-])s1)c1ccc(-c2ccccc2Cl)o1 [VPC16b1118]						
22.9 (≈ 8.01 µg/mL)	1.1 (≈ 0.385 µg/mL)	91.5 (≈ 32 µg/mL)	91.5 (≈ 32 µg/mL)	91.5 (≈ 32 µg/mL)	O=C(Nc1ncc([N+](=O)[O-])s1)c1ccc(-c2cccc(Cl)c2)o1 [VPC16b1119]						

The next lines start with the compound.

SMILES	MIC (C. jejuni; [6]) [µM]	MIC (H. pylori; [7]) [µM]	MIC (E. coli; [8]) [µM]	MIC (MRSA; [9]) [µM]	MIC (S. epidermidis; [10]) [µM]	MIC (C. jejuni; [1]) [µM]	MIC (H. pylori; [2]) [µM]	MIC (E. coli; [3]) [µM]	MIC (MRSA; [4]) [µM]	MIC (S. epidermidis; [5]) [µM]	other results
O=C(Nc1ncc([N+](=O)[O-])s1)c1sccc1Cl [VPC16a1009]											MIC (C. jejuni; Thiophene analogues table, read-out: MIC C. jejuni): 20.7 µM (≈ 6 µg/mL); MIC (H. pylori; Thiophene analogues table, read-out: MIC H. pylori): 5.2 µM (≈ 1.51 µg/mL); MIC (E. coli; planktonic, Thiophene analogues table, read-out: MIC E. coli Plank): 110.5 µM (≈ 32 µg/mL); MIC (MRSA; Thiophene analogues table, read-out: MIC MRSA): 20.7 µM (≈ 6 µg/mL); MIC (S. epidermidis; planktonic, Thiophene analogues table, read-out: MIC S. epidermidis Plank): 55.2 µM (≈ 16 µg/mL)
O=C(Cc1ccccc1)Nc1ncc([N+](=O)[O-])s1 [VPC16a1013]						1.8 (≈ 0.474 µg/mL)	21.6 (≈ 5.69 µg/mL)	121.5 (≈ 32 µg/mL)	121.5 (≈ 32 µg/mL)	22.8 (≈ 6 µg/mL)	
Cn1cc(C(=O)Nc2ncc([N+](=O)[O-])s2)c2ccccc21 [VPC16a1014]						19.9 (≈ 6.02 µg/mL)	1.2 (≈ 0.363 µg/mL)	105.9 (≈ 32 µg/mL)	105.9 (≈ 32 µg/mL)	5.0 (≈ 1.51 µg/mL)	
O=C(Nc1ncc([N+](=O)[O-])s1)c1ccncc1F [VPC16a1053]						14.9 (≈ 4 µg/mL)	3.7 (≈ 0.992 µg/mL)	119.3 (≈ 32 µg/mL)	119.3 (≈ 32 µg/mL)	119.3 (≈ 32 µg/mL)	
O=C(Nc1ncc([N+](=O)[O-])s1)c1ccc(F)cc1F [VPC16b1009]						7.0 (≈ 2 µg/mL)	0.4 (≈ 0.114 µg/mL)	112.2 (≈ 32 µg/mL)	28.0 (≈ 7.99 µg/mL)	42.1 (≈ 12 µg/mL)	
O=C(Nc1ncc([N+](=O)[O-])s1)c1c(F)cccc1F [VPC16b1010]						14.0 (≈ 3.99 µg/mL)	0.7 (≈ 0.2 µg/mL)	112.2 (≈ 32 µg/mL)	28.0 (≈ 7.99 µg/mL)	28.0 (≈ 7.99 µg/mL)	
O=C(Nc1ncc([N+](=O)[O-])s1)c1cc(F)c(F)cc1F [VPC16b1012]						9.9 (≈ 3 µg/mL)	0.8 (≈ 0.243 µg/mL)	105.5 (≈ 32 µg/mL)	33.0 (≈ 10 µg/mL)	33.0 (≈ 10 µg/mL)	
O=C(Nc1ncc([N+](=O)[O-])s1)c1cc(F)c(F)c(F)c1 [VPC16b1014]						4.9 (≈ 1.49 µg/mL)	1.2 (≈ 0.364 µg/mL)	105.5 (≈ 32 µg/mL)	29.7 (≈ 9.01 µg/mL)	66.0 (≈ 20 µg/mL)	
O=C(Nc1ncc([N+](=O)[O-])s1)c1ccc(F)c(F)c1 [VPC16b1019]						5.3 (≈ 1.51 µg/mL)	1.8 (≈ 0.513 µg/mL)	84.1 (≈ 24 µg/mL)	10.5 (≈ 2.99 µg/mL)	28.0 (≈ 7.99 µg/mL)	
Cn1c(C(=O)Nc2ncc([N+](=O)[O-])s2)cc2ccccc21 [VPC16b1028]						39.7 (≈ 12 µg/mL)	1.2 (≈ 0.363 µg/mL)	105.9 (≈ 32 µg/mL)	105.9 (≈ 32 µg/mL)	105.9 (≈ 32 µg/mL)	
O=C(Nc1ncc([N+](=O)[O-])s1)C1CC1c1ccccc1 (stereo not shown) [VPC16b1032]						26.6 (≈ 7.7 µg/mL)	1.7 (≈ 0.492 µg/mL)	110.6 (≈ 32 µg/mL)	13.8 (≈ 3.99 µg/mL)	13.8 (≈ 3.99 µg/mL)	
O=C(Nc1ncc([N+](=O)[O-])s1)c1ccc(-c2ccc3c(c2)OCO3)o1 [VPC16b1132]	89.1 (≈ 32 µg/mL)	1.4 (≈ 0.503 µg/mL)	89.1 (≈ 32 µg/mL)	89.1 (≈ 32 µg/mL)	89.1 (≈ 32 µg/mL)						
COc1ccc(-c2ccc(C(=O)Nc3ncc([N+](=O)[O-])s3)o2)cc1 [VPC16b1139]	92.7 (≈ 32 µg/mL)	1.5 (≈ 0.518 µg/mL)	92.7 (≈ 32 µg/mL)	92.7 (≈ 32 µg/mL)	92.7 (≈ 32 µg/mL)						
